Measurements taken from ChEMBL document CHEMBL4308841, “Synthesis, in vitro antiproliferative activity, and kinase inhibitory effects of pyrazole-containing diarylureas and diarylamides” (Eur J Med Chem, 2018).

Columns and labels:
HCT-116 = assay: Growth inhibition of human HCT116 cells assessed as cell growth at 0.1 uM incubated for 48 hrs by sulforhodamine B assay relative to control; assay type: functional; conditions: HCT-116, 48 h, read-out: Activity
ACHN = assay: Growth inhibition of human ACHN cells assessed as cell growth at 100 uM incubated for 48 hrs by sulforhodamine B assay relative to control; assay type: functional; conditions: read-out: Activity
RXF 393 [1] = assay: Growth inhibition of human RXF393 cells assessed as cell growth at 0.1 uM incubated for 48 hrs by sulforhodamine B assay relative to control; assay type: functional; conditions: RXF 393, 48 h, read-out: Activity
BT-549 = assay: Growth inhibition of human BT549 cells assessed as cell growth at 100 uM incubated for 48 hrs by sulforhodamine B assay relative to control; assay type: functional; conditions: BT-549, 48 h, read-out: Activity
CCRF-CEM = assay: Growth inhibition of human CCRF-CEM cells assessed as cell growth at 100 uM incubated for 48 hrs by sulforhodamine B assay relative to control; assay type: functional; conditions: read-out: Activity
UACC-62 = assay: Growth inhibition of human UACC62 cells assessed as cell growth at 0.01 uM incubated for 48 hrs by sulforhodamine B assay relative to control; assay type: functional; conditions: UACC-62, 48 h, read-out: Activity
T47D = assay: Growth inhibition of human T47D cells assessed as cell growth at 0.1 uM incubated for 48 hrs by sulforhodamine B assay relative to control; assay type: functional; conditions: read-out: Activity
NCI/ADR-RES = assay: Growth inhibition of human NCI/ADR-RES cells assessed as cell growth at 0.1 uM incubated for 48 hrs by sulforhodamine B assay relative to control; assay type: functional; conditions: read-out: Activity
Hs-578T = assay: Growth inhibition of human Hs578T cells assessed as cell growth at 1 uM incubated for 48 hrs by sulforhodamine B assay relative to control; assay type: functional; conditions: read-out: Activity
RPMI-8226 = assay: Growth inhibition of human RPMI8226 cells assessed as cell growth at 0.1 uM incubated for 48 hrs by sulforhodamine B assay relative to control; assay type: functional; conditions: RPMI-8226, 48 h, read-out: Activity
SN12C = assay: Growth inhibition of human SN12C cells assessed as cell growth at 0.01 uM incubated for 48 hrs by sulforhodamine B assay relative to control; assay type: functional; conditions: read-out: Activity
SF-268 = assay: Growth inhibition of human SF268 cells assessed as cell growth at 100 uM incubated for 48 hrs by sulforhodamine B assay relative to control; assay type: functional; conditions: SF-268, 48 h, read-out: Activity
NCI-H522 = assay: Growth inhibition of human NCI-H522 cells assessed as cell growth at 0.1 uM incubated for 48 hrs by sulforhodamine B assay relative to control; assay type: functional; conditions: NCI-H522, 48 h, read-out: Activity
A549 = assay: Growth inhibition of human A549/ATCC cells assessed as cell growth at 100 uM incubated for 48 hrs by sulforhodamine B assay relative to control; assay type: functional; conditions: A549, 48 h, read-out: Activity
SNB-19 [2] = assay: Growth inhibition of human SNB19 cells assessed as cell growth at 0.1 uM incubated for 48 hrs by sulforhodamine B assay relative to control; assay type: functional; conditions: SNB-19, 48 h, read-out: Activity
SK-MEL-2 = assay: Growth inhibition of human SK-MEL-2 cells assessed as cell growth at 0.1 uM incubated for 48 hrs by sulforhodamine B assay relative to control; assay type: functional; conditions: SK-MEL-2, 48 h, read-out: Activity
UACC-257 = assay: Growth inhibition of human UACC257 cells incubated for 48 hrs by sulforhodamine B assay; assay type: functional, cell-based; conditions: UACC-257, 48 h
HL-60(TB) = assay: Growth inhibition of human HL-60(TB) cells incubated for 48 hrs by sulforhodamine B assay; assay type: functional, cell-based; conditions: HL-60, 48 h
SNB-19 [3] = assay: Growth inhibition of human SNB19 cells incubated for 48 hrs by sulforhodamine B assay; assay type: functional, cell-based; conditions: SNB-19, 48 h
SF-539 = assay: Growth inhibition of human SF539 cells assessed as cell growth at 0.1 uM incubated for 48 hrs by sulforhodamine B assay relative to control; assay type: functional; conditions: SF-539, 48 h, read-out: Activity
RXF 393 [4] = assay: Growth inhibition of human RXF393 cells incubated for 48 hrs by sulforhodamine B assay; assay type: functional, cell-based; conditions: RXF 393, 48 h
KM12 = assay: Growth inhibition of human KM12 cells assessed as cell growth at 0.1 uM incubated for 48 hrs by sulforhodamine B assay relative to control; assay type: functional; conditions: KM12, 48 h, read-out: Activity
SNB-75 = assay: Growth inhibition of human SNB75 cells assessed as cell growth at 1 uM incubated for 48 hrs by sulforhodamine B assay relative to control; assay type: functional; conditions: SNB-75, 48 h, read-out: Activity
U-251 = assay: Growth inhibition of human U251 cells assessed as cell growth at 100 uM incubated for 48 hrs by sulforhodamine B assay relative to control; assay type: functional; conditions: U-251, 48 h, read-out: Activity
SK-OV-3 = assay: Growth inhibition of human SKOV3 cells assessed as cell growth at 0.1 uM incubated for 48 hrs by sulforhodamine B assay relative to control; assay type: functional; conditions: SK-OV-3, 48 h, read-out: Activity
NCI-H322M = assay: Growth inhibition of human NCI-H322M cells assessed as cell growth at 0.1 uM incubated for 48 hrs by sulforhodamine B assay relative to control; assay type: functional; conditions: read-out: Activity
UO-31 = assay: Growth inhibition of human UO31 cells incubated for 48 hrs by sulforhodamine B assay; assay type: functional, cell-based; conditions: UO-31, 48 h
NCI-H226 = assay: Growth inhibition of human NCI-H226 cells assessed as cell growth at 100 uM incubated for 48 hrs by sulforhodamine B assay relative to control; assay type: functional; conditions: NCI-H226, 48 h, read-out: Activity
HCC 2998 = assay: Growth inhibition of human HCC2998 cells incubated for 48 hrs by sulforhodamine B assay; assay type: functional, cell-based; conditions: HCC 2998, 48 h
[5] = read-out: LC50 (the source's name)
[6] = read-out: pLC50 (the source's name) (converted)

COc1cc(Cl)cc(-c2nn(-c3cccc(NC(=O)Nc4ccc(Cl)c(Cl)c4)c3)cc2-c2ccncc2)c1
growth at 0.1 µM (HCT-116): 100% | growth at 100 µM (ACHN): 6% | growth at 0.1 µM (RXF 393 [1]): 101% | growth at 100 µM (BT-549): -15% | growth at 100 µM (CCRF-CEM): -27% | growth at 0.01 µM (UACC-62): 95% | growth at 0.1 µM (T47D): 94% | growth at 0.1 µM (NCI/ADR-RES): 98% | growth at 1 µM (Hs-578T): 99% | growth at 0.1 µM (RPMI-8226): 100% | growth at 0.01 µM (SN12C): 97% | growth at 100 µM (SF-268): 11% | growth at 0.1 µM (NCI-H522): 53% | growth at 100 µM (A549): -10% | growth at 0.1 µM (SNB-19 [2]): 90% | growth at 0.1 µM (SK-MEL-2): 54% | GI50 (UACC-257; read-out: GI50): 1.54 µM | CC50 (UACC-257; [5]): > 100 µM | TGI (UACC-257; read-out: TGI): 61.9 µM | GI50 (UACC-257; read-out: pGI50 (converted)): 1.86 µM | CC50 (UACC-257; [6]): > 100 µM | TGI (UACC-257; read-out: pTGI (converted)): 5.25 µM | GI50 (HL-60(TB); read-out: GI50): 2.19 µM | LC50 (HL-60(TB); read-out: LC50): > 100 µM | TGI (HL-60(TB); read-out: TGI): 55.8 µM | GI50 (HL-60(TB); read-out: pGI50 (converted)): 2.19 µM | LC50 (HL-60(TB); read-out: pLC50 (converted)): > 100 µM | TGI (HL-60(TB); read-out: pTGI (converted)): 5.62 µM | GI50 (SNB-19 [3]; read-out: GI50): 3.51 µM | CC50 (SNB-19 [3]; [5]): > 100 µM | TGI (SNB-19 [3]; read-out: TGI): > 100 µM | GI50 (SNB-19 [3]; read-out: pGI50 (converted)): 3.55 µM | CC50 (SNB-19 [3]; [6]): > 100 µM | TGI (SNB-19 [3]; read-out: pTGI (converted)): > 100 µM | growth at 0.1 µM (SF-539): 92% | LC50 (RXF 393 [4]): > 100 µM | GI50 (RXF 393 [4]; read-out: GI50): 1.96 µM | TGI (RXF 393 [4]; read-out: TGI): 72.5 µM | GI50 (RXF 393 [4]; read-out: pGI50 (converted)): 1.95 µM | TGI (RXF 393 [4]; read-out: pTGI (converted)): 7.24 µM | growth at 0.1 µM (KM12): 92% | growth at 1 µM (SNB-75): 71% | growth at 100 µM (U-251): -68% | growth at 0.1 µM (SK-OV-3): 90% | growth at 0.1 µM (NCI-H322M): 90% | IC50 (UO-31): 1.89 µM | GI50 (UO-31; read-out: GI50): 1.59 µM | CC50 (UO-31; [5]): > 100 µM | TGI (UO-31; read-out: TGI): 15.2 µM | GI50 (UO-31; read-out: pGI50 (converted)): 1.91 µM | CC50 (UO-31; [6]): > 100 µM | TGI (UO-31; read-out: pTGI (converted)): 18.2 µM | growth at 100 µM (NCI-H226): 2% | GI50 (HCC 2998; read-out: GI50): 3.16 µM | CC50 (HCC 2998; [5]): > 100 µM | TGI (HCC 2998; read-out: TGI): 35.8 µM | GI50 (HCC 2998; read-out: pGI50 (converted)): 3.16 µM | CC50 (HCC 2998; [6]): > 100 µM | TGI (HCC 2998; read-out: pTGI (converted)): 37.2 µM
